# Measured values reported in patent US9157908B2, “Chitosan-alginate scaffold cell culture system and related methods” (University of Washington through its Center for …, priority 2011, dated 2015).
# Read-outs that look alike come from different tables or passages of the source.
# Key:
# [1] = cited from earlier work
# HepG2 cells = assay: Cellular response to doxorubicin, cell viability by Alamar Blue assay; type: cell-based, human; conditions: for LD50 for doxorubicin: 72 hours post treatment; for viability at 1 µM: Homo sapiens, read-out: viability relative to untreated cells
# Method: (§1) Proliferation of cells cultured on 2D wells, Matrigel matrix, and CA scaffolds was determined using the Alamar Blue assay following the manufacturer's protocol. Briefly, cells cultured on 2D wells and 3D scaffolds were washed with D-PBS before adding 1 mL of Alamar Blue solution (10% Alamar Blue in fully supplemented phenol red free DMEM or MEM) to each well.
# (§2) For human hepatocellular carcinoma cells, after 2 hrs the Alamar Blue solution was transferred to a 96-well plate to obtain fluorescent values on a SpectraMax M2 microplate reader (Molecular Devices, Sunnyvale, Calif.) at 550 nm excitation, 590 nm emission. Standard curves were generated by seeding cells counted using a hemocytometer onto cell culture materials in triplicate, and performing Alamar Blue assay to generate a plot of linear regression of fluorescent values vs. cell number for each material. The cell number in an experimental sample was calculated based on the standard curve. No background fluorescence was generated by CA scaffolds. Cells were again washed with D-PBS to remove Alamar Blue solution and fresh fully-supplemented media were added to each well.
# (§3) For human hepatocellular carcinoma cell-containing scaffolds, after 10 days of culture, media from cell cultures were replaced with 1 mL fully supplemented cell culture media containing various concentrations of doxorubicin. Cells were induced with doxorubicin containing media for 24 h, after which media was replaced with standard fully supplemented cell culture media. Cell viability was assessed using the Alamar Blue assay following the manufacturer's protocol as described above. LD50 was estimated via a polynomial approximation.
# PLC/PRF/5 (PLC) cells = assay: as above; type: cell-based, human; conditions: 72 hours post treatment
# Method: as §1, §2, §3
smiles,measurement,setting,value
COc1cccc2c1C(=O)c1c(O)c3c(c(O)c1C2=O)C[C@@](O)(C(=O)CO)C[C@@H]3O[C@H]1C[C@H](N)[C@H](O)[C@H](C)O1 [doxorubicin],clearance from plasma,[1]; 48 hours post treatment,nearly complete clearance
same,peak plasma concentration,"[1]; standard dosing schemes, minutes after treatment",approximately 15 μM
same,LD50 for doxorubicin,HepG2 cells; HepG2 cells cultured in 2D substrate,0.45 ± 0.18 µM
same,LD50 for doxorubicin,HepG2 cells; HepG2 cells in CA,13 ± 1.7 µM
same,LD50 for doxorubicin,HepG2 cells; HepG2 cells in Matrigel,7 ± 2.2 µM
same,viability at 1 µM,"HepG2 cells; HepG2, 48 h",86.7 ± 2.4%
same,viability at 1 µM,"HepG2 cells; HepG2, 72 h",88.6 ± 2.75%
same,LD50 of doxorubicin,PLC/PRF/5 (PLC) cells; PLC cells CA cultured,4 ± 1.4 µM
same,LD50 of doxorubicin,PLC/PRF/5 (PLC) cells; PLC cells Matrigel cultured,3 ± 1.1 µM
same,LD50 of doxorubicin,PLC/PRF/5 (PLC) cells; PLC cells cultured on 2D surfaces,0.2 ± 0.13 µM
